Laboratory results published in patent publication US4481192A, “Acid-protease inhibiting peptide derivatives” (SANOFI, priority 1982, dated 1984).
Like-named read-outs stand apart in the source and are kept apart here. Non-standard residues stand in square brackets, D forms with d. Residues, ends and D or L forms follow the SMILES beside them. *: point of attachment. Sta = CC(C)C[C@H](N)[C@@H](O)CC(=O)O; Isovaleryl = CC(C)CC(=O)*; Cbz = O=C(OCc1ccccc1)*; Boc = CC(C)(C)OC(=O)*

How the values were obtained:
Type in all cases: biochemical
[1] = molecular target: T1, human plasma renin activity (Homo sapiens, UniProt P00797); experiment: Inhibition of the human plasma renin activity (P.R.A.); conditions: 37° C., pool of human plasma
T1 construct: the human plasma contain and the substrate: angiotensinogen, and the enzyme: renin; from tissue; host or cells: pool of human plasma
T1 sequence (P00797 67-406): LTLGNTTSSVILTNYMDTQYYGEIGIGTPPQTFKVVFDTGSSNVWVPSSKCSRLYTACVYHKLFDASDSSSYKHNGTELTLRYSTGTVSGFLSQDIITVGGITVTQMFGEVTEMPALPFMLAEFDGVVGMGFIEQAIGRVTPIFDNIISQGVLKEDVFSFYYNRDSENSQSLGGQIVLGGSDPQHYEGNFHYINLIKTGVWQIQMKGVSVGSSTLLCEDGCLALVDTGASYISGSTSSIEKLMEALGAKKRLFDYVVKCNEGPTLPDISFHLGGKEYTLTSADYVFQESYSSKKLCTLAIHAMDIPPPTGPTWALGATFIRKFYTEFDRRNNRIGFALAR
Procedure: The angiotensin I released during the reaction (the human plasma contain and the substrate: angiotensinogen, and the enzyme: renin) is measured by radioimmunological determination using a kit.
Of course, an inhibitor of the enzyme for conversion of the PMSF (phenylmethylsulphonyl fluoride) is added to the incubation medium.
Two types of experiments were carried out:
one at pH 6, which is the optimum pH for the enzyme reaction with human renin (maleate buffer, incubation: 30 minutes), and
the other at pH 7.4, which is the physiological pH (phosphate buffer, incubation: 60 minutes).
(§1) A 10^-3 M stock solution of the peptide is made up in a mixture containing equal volumes of a solution A (19 ml of methanol+1 ml of acetic acid) and a solution B (4 ml of methanol+2 ml of sodium hydroxide solution).
(§2) The subsequent dilutions of the peptide are then prepared in the appropriate buffer in accordance with the procedures described above.

porcine pepsin = porcine pepsin (Sus scrofa, UniProt P00791); experiment: Inhibition of porcine pepsin; conditions: pH 2, substrate bovine haemoglobin, 37° C.
Procedure: The method used is that of TAKAAKI AOYAGI (J. Antibiotics, 24, pages 687-694, 1971). The substrate used is bovine haemoglobin and the enzyme is porcine pepsin.
0.5% strength haemoglobin is hydrolysed with pepsin (1 mcg/ml) at 37° C. in 0.02M KCl-HCl buffer at pH 2.
Preincubation takes place for 3 minutes, followed by incubation for 25 minutes. After precipitation of the proteins with 1.7M perchloric acid, the optical density of the supernatant is determined on a spectrophotometer at 280 nm.
The results are expressed as the percentage inhibition of the maximum optical density obtained in the absence of inhibitor. They are also expressed as an IC50.
as §1, §2

cathepsin D = molecular target: T2, cathepsin D (Bos taurus, UniProt P80209); experiment: Enzyme inhibition of cathepsin D; conditions: pH 3.2, substrate bovine haemoglobin, 37° C., incubation 30 minutes
T2 construct: purchased SIGMA C 3138
Procedure: The method used is very similar to the pepsin method (T. AOYAGI, 1971).
The substrate used is bovine haemoglobin and the enzyme is cathepsin D of bovine origin (SIGMA, No.C 3138, batch 26 C-8100).
0.5% strength haemoglobin is hydrolysed with cathepsin D (200 μg/ml) at 37° C. in citrate-phosphate buffer at pH 3.2.
The substrate, the inhibitor and the enzyme are incubated for 30 minutes.
After precipitation of the proteins with 1.7M perchloric acid, the optical density of the supernatant is determined on a spectrophotometer at 280 nm.
The results are expressed as the percentage reduction in the maximum optical density obtained in the absence of inhibitor.
as §1, §2

[2] = pH 6, maleate buffer, incubation 30 minutes, read-out: INHIBITION OF HUMAN P.R.A. (IC50) pH 6
[3] = pH 7.4, phosphate buffer, incubation 60 minutes, read-out: INHIBITION OF HUMAN P.R.A. (IC50) pH 7.4

T2 sequence (P80209 45-390): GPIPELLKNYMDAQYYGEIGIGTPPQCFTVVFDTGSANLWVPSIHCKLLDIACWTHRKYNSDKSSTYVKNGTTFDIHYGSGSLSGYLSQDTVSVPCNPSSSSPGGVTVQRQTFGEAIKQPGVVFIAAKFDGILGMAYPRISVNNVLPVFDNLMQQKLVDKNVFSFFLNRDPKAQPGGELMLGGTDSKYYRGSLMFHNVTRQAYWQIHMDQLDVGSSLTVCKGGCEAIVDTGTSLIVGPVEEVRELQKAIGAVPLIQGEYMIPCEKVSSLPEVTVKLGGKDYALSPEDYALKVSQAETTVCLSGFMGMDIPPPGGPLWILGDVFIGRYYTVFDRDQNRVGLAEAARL
porcine pepsin, sequence (P00791 60-385): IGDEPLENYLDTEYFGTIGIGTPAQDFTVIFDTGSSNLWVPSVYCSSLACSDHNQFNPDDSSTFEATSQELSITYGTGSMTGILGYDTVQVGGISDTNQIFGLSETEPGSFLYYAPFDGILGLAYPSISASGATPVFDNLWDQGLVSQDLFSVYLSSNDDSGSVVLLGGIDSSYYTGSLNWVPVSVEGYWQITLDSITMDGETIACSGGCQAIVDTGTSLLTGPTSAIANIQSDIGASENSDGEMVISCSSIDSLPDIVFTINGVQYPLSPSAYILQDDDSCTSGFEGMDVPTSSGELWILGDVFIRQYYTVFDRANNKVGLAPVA

| IC50 [1, 2] | IC50 [1, 3] | IC50 (porcine pepsin) | IC50 (cathepsin D) | SMILES |
| --- | --- | --- | --- | --- |
| 3.5 nM | 190 nM | 14 nM | 180 nM | COC(=O)C[C@H](O)[C@H](CC(C)C)NC(=O)[C@H](C)NC(=O)C[C@H](O)[C@H](CC(C)C)NC(=O)[C@H](Cc1ccccc1)NC(=O)[C@H](Cc1ccccc1)NC(=O)OC(C)(C)C [SR 41331, Boc--Phe--Phe--Sta--Ala--Sta--OMe] (Boc-FF[Sta]A[Sta]-OMe) |
| – | – | 120 nM | 130 nM | COC(=O)C[C@H](O)[C@H](CC(C)C)NC(=O)[C@H](C)NC(=O)C[C@H](O)[C@H](CC(C)C)NC(=O)[C@H](Cc1c[nH]c2ccccc12)NC(=O)[C@H](Cc1c[nH]c2ccccc12)NC(=O)OC(C)(C)C [SR 41376, Boc--Trp--Trp--Sta--Ala--Sta--OMe] (Boc-WW[Sta]A[Sta]-OMe) |
| – | – | 1300 nM | 870 nM | COC(=O)C[C@H](O)[C@H](CC(C)C)NC(=O)[C@H](C)NC(=O)C[C@H](O)[C@H](CC(C)C)NC(=O)[C@H](Cc1c[nH]cn1)NC(=O)[C@H](Cc1ccccc1)NC(=O)OC(C)(C)C [SR 41395, Boc--Phe--His--Sta--Ala--Sta--OMe] (Boc-FH[Sta]A[Sta]-OMe) |
| – | – | 65 nM | 95 nM | COC(=O)C[C@H](O)[C@H](CC(C)C)NC(=O)[C@H](C)NC(=O)C[C@H](O)[C@H](CC(C)C)NC(=O)[C@@H](NC(=O)[C@H](Cc1ccccc1)NC(=O)OCc1ccccc1)C(C)C [SR 41405, Z--Phe--Val--Sta--Ala--Sta--OMe] (Cbz-FV[Sta]A[Sta]-OMe) |
| 6.75 nM | 150 nM | 29 nM | 75 nM | COC(=O)C[C@H](O)[C@H](CC(C)C)NC(=O)[C@H](C)NC(=O)C[C@H](O)[C@H](CC(C)C)NC(=O)[C@@H](NC(=O)[C@H](Cc1c[nH]c2ccccc12)NC(=O)OCc1ccccc1)C(C)C [SR 41485, Z--Trp--Val--Sta--Ala--Sta--OMe] (Cbz-WV[Sta]A[Sta]-OMe) |
| – | 45 nM | 550 nM | 700 nM | CC(C)C[C@H](NC(=O)[C@H](C)NC(=O)C[C@H](O)[C@H](CC(C)C)NC(=O)[C@H](Cc1c[nH]cn1)NC(=O)[C@H](Cc1ccccc1)NC(=O)OC(C)(C)C)[C@@H](O)CC(=O)O [SR 41492, Boc--Phe--His--Sta--Ala--Sta--OH] (Boc-FH[Sta]A[Sta]-OH) |
| – | – | – | 750 nM | COC(=O)C[C@H](O)[C@H](CC(C)C)NC(=O)[C@H](C)NC(=O)C[C@H](O)[C@H](CC(C)C)NC(=O)[C@H](Cc1c[nH]cn1)NC(=O)[C@H](Cc1c[nH]c2ccccc12)NC(=O)OC(C)(C)C [SR 41619, Boc--Trp--His--Sta--Ala--Sta--OMe] (Boc-WH[Sta]A[Sta]-OMe) |
| 9 nM | 470 nM | 18 nM | – | COC(=O)C[C@H](O)[C@H](CC(C)C)NC(=O)[C@H](C)NC(=O)C[C@H](O)[C@H](CC(C)C)NC(=O)[C@H](C)NC(=O)[C@H](Cc1ccccc1)NC(=O)CC(C)C [SR 42258, iVa--Phe--Ala--Sta--Ala--Sta--OMe] (Isovaleryl-FA[Sta]A[Sta]-OMe) |
| 170 nM | 4700 nM | 750 nM | – | COC(=O)C[C@H](O)[C@H](CC(C)C)NC(=O)[C@H](C)NC(=O)C[C@H](O)[C@H](CC(C)C)NC(=O)CNC(=O)[C@H](Cc1ccccc1)NC(=O)CC(C)C [SR 42261, iVa--Phe--Gly--Sta--Ala--Sta--OMe] (Isovaleryl-FG[Sta]A[Sta]-OMe) |
